Laboratory results reported in article PMC10675732 (Viruses, 2023).
“And” between values parts separate entries of the source, which are not always exact repeats. Equal values may be shown once. Read-outs that look alike come from different tables or passages of the source. Marks after values point to notes of the source that are not given here.

Experiments:
[1] = system: B/Hong Kong/5/72; format: in vivo, influenza B virus
[2] = system: A/PR/8/34 (H1N1); format: in vivo, influenza A virus
[3] = system: influenza B viruses; conditions: range over influenza B viruses, previous study; cited from earlier work
[4] = human, in vivo, po; cited from earlier work
[5] = system: influenza A viruses; conditions: range over influenza A viruses, previous study; cited from earlier work
[6] = system: Parent virus (A/PR/8/34 (H1N1)); assay: microbe, parasite or virus in culture; format: cell-based; conditions: Influenza A virus, plaque reduction assay
[7] = system: seasonal influenza A viruses; conditions: cited from earlier work
[8] = mouse, in vivo, po; cited from earlier work
[9] = in vivo; conditions: mouse, sc
[10] = system: A/PR/8/34 (H1N1); conditions: viral yield; cited from earlier work
[11] = cited from earlier work
[12] = system: B/Hong Kong/5/72; conditions: viral yield; cited from earlier work

CCOC(=O)C1=C[C@@H](OC(CC)CC)[C@H](NC(C)=O)[C@@H](N)C1 [oseltamivir phosphate]
Body weight loss induced by infection ([1]; in vivo): suppressed body weight loss | Mice survived ([1]; n = 10): 70% | Body weight loss induced by infection ([2]; in vivo): suppressed body weight loss | Virus titres in the lungs compared to the vehicle-treated group ([2]; in vivo): significantly low | Mice survived ([2]; n = 10): 100%

O=C1c2c(O)c(=O)ccn2N([C@@H]2c3ccccc3SCc3c2ccc(F)c3F)[C@@H]2COCCN12 [baloxavir acid]
EC90 [3]: 2.2 to 6.5 nM | Half-life of baloxavir acid in humans [4]: 49 to 91 h | EC90 [5]: 0.46 to 0.98 nM | Body weight loss induced by infection ([1]; in vivo): suppressed body weight loss | Mortality due to infection ([1]; in vivo): completely eliminated mortality | Survival ([1]; in vivo): all mice survived | Survival Rate ([1]; in vivo): 50 * % and 100 ** % and 80 * % and 50% | Survival rate ([1]; in vivo): ≤ 50% | Survival vs vehicle ([1]; in vivo): significantly improved survival | Virus titres in the lungs compared to the oseltamivir phosphate group ([1]; in vivo): significantly lower | Virus titres in the lungs compared to the vehicle-treated group ([1]; in vivo, sc, 10 mg/kg): significantly low | EC50 [6]: 1.69 ± 0.57 nM | mean EC50 against seasonal influenza A viruses relative to influenza B viruses [7]: five to ten times lower | Body weight loss induced by infection ([2]; in vivo): suppressed body weight loss | Mortality ([2]; in vivo): complete elimination of mortality | Mortality due to infection ([2]; in vivo): completely eliminated mortality | Survival ([2]; in vivo): all mice survived | Survival Rate ([2]; in vivo): 100 ** % | Virus titres in the lungs compared to the oseltamivir phosphate group ([2]; in vivo): significantly lower | Virus titres in the lungs compared to the vehicle-treated group ([2]; in vivo): significantly low | Half-life of baloxavir acid in plasma [8]: 2.2 to 3.1 h | half-life ([9]; female, BALB/c, 3.2 mg/kg): 74.2 h | half-life ([9]; female, BALB/c, 6.4 mg/kg): 84.2 h | half-life ([9]; 10 mg/kg): 49.9 h | EC90 [10]: 0.79 nM | Plasma concentration ([11]; 10 mg/kg s.c. single dose, 2 h after dosing): 44.0 ng/mL | Plasma concentration ([11]; 10 mg/kg s.c. single dose, 4 h after dosing): 47.2 ng/mL | Plasma concentration ([11]; 10 mg/kg s.c. single dose, 8 h after dosing): 34.4 ng/mL | Plasma concentration ([11]; 10 mg/kg s.c. single dose, 48 h after dosing): 17.8 ng/mL | Plasma concentration ([11]; 10 mg/kg s.c. single dose, 120 h after dosing): 6.79 ng/mL | Plasma concentration ([11]; 10 mg/kg s.c. single dose, 168 h after dosing): 6.51 ng/mL | Plasma concentration ([11]; 10 mg/kg s.c. single dose, 216 h after dosing): 5.97 ng/mL | Plasma concentration ([11]; mouse, in vivo): 26.1 ng/mL | EC90 [12]: 2.2 nM

NC(=O)c1nc(F)c[nH]c1=O [Favipiravir]
EC50 [6]: 22300 ± 1010 nM
